Results published in patent publication US10160762B2, “6-alkyl dihydropyrazolopyrimidinone compounds as PDE2 inhibitors” (Merck Sharp & Dohme Corp., priority 2015, dated 2018).

Molecular target: T1, Rhesus PDE2A3 (Macaca mulatta, UniProt B3VTJ2)
T1 construct: made in house; host or cells: AD293 cells, transient transfection; supernatant of sonicated lysate
T1 sequence (B3VTJ2 1-941): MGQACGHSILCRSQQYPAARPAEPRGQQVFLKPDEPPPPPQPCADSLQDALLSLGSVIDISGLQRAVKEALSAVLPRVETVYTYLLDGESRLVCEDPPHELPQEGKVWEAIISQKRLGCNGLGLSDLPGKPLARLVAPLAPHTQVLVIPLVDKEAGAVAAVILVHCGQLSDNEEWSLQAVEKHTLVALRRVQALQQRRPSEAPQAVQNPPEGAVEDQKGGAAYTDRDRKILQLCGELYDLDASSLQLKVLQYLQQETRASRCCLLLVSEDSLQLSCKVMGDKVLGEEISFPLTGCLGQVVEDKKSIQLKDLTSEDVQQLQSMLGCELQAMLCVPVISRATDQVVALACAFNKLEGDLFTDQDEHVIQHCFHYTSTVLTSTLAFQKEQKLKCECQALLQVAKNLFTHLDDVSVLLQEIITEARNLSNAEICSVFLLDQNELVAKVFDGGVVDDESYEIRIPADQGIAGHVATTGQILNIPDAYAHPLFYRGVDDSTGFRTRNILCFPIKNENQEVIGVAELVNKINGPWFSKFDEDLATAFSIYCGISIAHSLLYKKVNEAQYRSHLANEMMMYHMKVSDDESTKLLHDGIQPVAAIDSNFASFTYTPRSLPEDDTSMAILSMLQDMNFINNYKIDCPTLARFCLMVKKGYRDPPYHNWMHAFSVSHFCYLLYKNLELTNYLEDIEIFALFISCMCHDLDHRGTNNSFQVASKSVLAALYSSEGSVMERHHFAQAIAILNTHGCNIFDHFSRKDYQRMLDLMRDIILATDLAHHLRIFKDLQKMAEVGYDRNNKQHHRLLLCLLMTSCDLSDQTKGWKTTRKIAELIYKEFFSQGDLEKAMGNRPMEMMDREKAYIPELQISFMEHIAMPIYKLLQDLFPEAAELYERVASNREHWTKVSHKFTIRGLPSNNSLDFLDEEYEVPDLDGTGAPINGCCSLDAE
Experiment: PDE2 fluorescence polarization (IMAP FP) inhibition assay, rhesus PDE2A3
Type: biochemical, rhesus macaque
Conditions: Lab B; read-out: Rhesus PDE2 Ki (nM) Lab B
Outline: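 Enzyme source was the lysate supernatant of AD293 cells transiently expressing rhesus PDE2A3, diluted to give 20% conversion of 50 nM FAM-cAMP, with 1 µM cGMP as activator. Buffer was 10 mM Tris pH 7.2, 10 mM MgCl2, 1 mM DTT.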

| Ki | Structure (SMILES) |
| --- | --- |
| 2.9 nM | Cc1nc2c(c(CO)nn2C(C)c2ccc(OC(F)F)cc2)c(=O)[nH]1 (single isomer, unassigned) [Example 21, (S)- or (R)-1-(1-(4-(Difluoromethoxy)phenyl)ethyl)-3-(hydroxymethyl)-6-methyl-1H-pyrazolo[3,4-d]pyrimidin-4(5H)-one] |
| 20 nM | Cc1nc2c(c(C#N)nn2C(C)c2ccc(C(F)(F)F)cc2)c(=O)[nH]1 (single isomer, unassigned) [Example 252] |
| 6.7 nM | Cc1nc2c(c(CO)nn2C2(c3ccc(C(F)(F)F)cc3)CCC2)c(=O)[nH]1 [Example 78, 3-(Hydroxymethyl)-6-methyl-1-(1-(4-(trifluoromethyl)phenyl)cyclobutyl)-1H-pyrazolo[3,4-d]pyrimidin-4(5H)-one] |
| 0.87 nM | COc1ccc(Cc2nc3c(c(CF)nn3C(C)c3ccc(C(F)(F)F)cc3)c(=O)[nH]2)cc1 (single isomer, unassigned) [Example 219, (S)- or (R)-3-(Fluoromethyl)-6-(4-methoxybenzyl)-1-(1-(4-(trifluoromethyl)phenyl)ethyl)-1H-pyrazolo[3,4-d]pyrimidin-4(5H)-one] |
| 36 nM | CC(C)c1nc2c(c(CO)nn2C(C)c2ccc(C(F)(F)F)cc2)c(=O)[nH]1 (racemic) [Example 296, 3-(Hydroxymethyl)-6-(1-methylethyl)-1-{1-[4-(trifluoromethyl)phenyl]ethyl}-1,5-dihydro-4H-pyrazolo[3,4-d]pyrimidin-4-one] |
| 0.48 nM | Cc1nc2c(c(CO)nn2C(c2ccc(C(C)(C)C)cc2)C2CC2)c(=O)[nH]1 (single isomer, unassigned) [Example 89, (S)- or (R)-1-((4-tert-Butylphenyl)(cyclopropyl)methyl)-3-(hydroxymethyl)-6-methyl-1H-pyrazolo[3,4-d]pyrimidin-4(5H)-one] |
| 0.33 nM | Cc1nc2c(c(CF)nn2C(c2ccc(C(F)(F)F)c(F)c2)C2CC2)c(=O)[nH]1 (single isomer, unassigned) [Example 226, (R)- or (S)-1-(Cyclopropyl(3-fluoro-4-(trifluoromethyl)phenyl)methyl)-3-(fluoromethyl)-6-methyl-1,5-dihydro-4H-pyrazolo[3,4-d]pyrimidin-4-one] |
| 1 nM | Cc1nc2c(c(CO)nn2C(c2ccc(C(F)(F)F)c(F)c2)C2CC2)c(=O)[nH]1 (single isomer, unassigned) [Example 91, (S)- or (R)-1-(Cyclopropyl(3-fluoro-4-(trifluoromethyl)phenyl)methyl)-3-(hydroxymethyl)-6-methyl-1H-pyrazolo[3,4-d]pyrimidin-4(5H)-one] |
| 71 nM | Cc1nc2c(c(CC#N)nn2C(C)c2ccc(C(F)(F)F)cc2)c(=O)[nH]1 (single isomer, unassigned) [Example 280] |
| 179 nM | Cc1nc2c(c(CC(F)F)nn2C(C)c2ccc(C(F)(F)F)cc2)c(=O)[nH]1 (single isomer, unassigned) [Example 285] |
| 0.91 nM | Cc1nc2c(c(CO)nn2C(c2ccc(OC(F)(F)F)cc2)C(C)C)c(=O)[nH]1 (single isomer, unassigned) [Example 85, (S)- or (R)-3-(Hydroxymethyl)-6-methyl-1-(2-methyl-1-(4-(trifluoromethoxy)phenyl)propyl)-1H-pyrazolo[3,4-d]pyrimidin-4(5H)-one] |
| 16 nM | Cc1nc2c(c(CO)nn2C(c2ccc(OC(F)(F)F)cc2)C(C)C)c(=O)[nH]1 (single isomer, unassigned) [Example 84, (R)- or (S)-3-(Hydroxymethyl)-6-methyl-1-(2-methyl-1-(4-(trifluoromethoxy)phenyl)propyl)-1H-pyrazolo[3,4-d]pyrimidin-4(5H)-one] |
| 22 nM | Cc1nc2c(c(CC(F)(F)F)nn2C(c2ccc(C(F)(F)F)cc2)C2(C)CC2)c(=O)[nH]1 (single isomer, unassigned) [Example 59, (S)- or (R)-6-Methyl-1-((1-methylcyclopropyl)(4-(trifluoromethyl)phenyl)methyl)-3-(2,2,2-trifluoroethyl)-1H-pyrazolo[3,4-d]pyrimidin-4(5H)-one] |
| 2 nM | Cc1nc2c(c(CCO)nn2C(C)c2ccc(C(F)(F)F)cc2)c(=O)[nH]1 (single isomer, unassigned) [Example 250] |
| 0.5 nM | Cc1nc2c(c(CF)nn2C(c2ccc(OC(F)(F)F)c(F)c2)C2CC2)c(=O)[nH]1 (single isomer, unassigned) [Example 228, (R)- or (S)-1-(Cyclopropyl(3-fluoro-4-(trifluoromethoxy)phenyl)methyl)-3-(fluoromethyl)-6-methyl-1,5-dihydro-4H-pyrazolo[3,4-d]pyrimidin-4-one] |
| 69 nM | CC(c1ccc(C(F)(F)F)cc1)n1nc(CO)c2c(=O)[nH]c(C(F)F)nc21 (stereo not shown) [Example 284, 6-(Difluoromethyl)-3-(hydroxymethyl)-1-(1-(4-(trifluoromethyl)phenyl)ethyl)-1H-pyrazolo[3,4-d]pyrimidin-4(5H)-one] |
| 9.4 nM | Cc1nc2c(c(CO)nn2C(c2ccc(C(F)(F)F)cc2)C(C)(C)C)c(=O)[nH]1 (single isomer, unassigned) [Example 83, (S)- or (R)-1-(2,2-Dimethyl-1-(4-(trifluoromethyl)phenyl)-propyl)-3-(hydroxymethyl)-6-methyl-1H-pyrazolo[3,4-d]pyrimidin-4(5H)-one] |
| 24 nM | COCc1nn(C(C)c2ccc(C(F)(F)F)cc2)c2nc(C)[nH]c(=O)c12 (single isomer, unassigned) [Example 279] |
| 8.9 nM | Cc1nc2c(c(/C=N\O)nn2C(C)c2ccc(C(F)(F)F)cc2)c(=O)[nH]1 (stereo not shown) [Example 251, (Z)-6-Methyl-4-oxo-1-(1-(4-(trifluoromethyl)phenyl)ethyl)-4,5-dihydro-1H-pyrazolo[3,4-d]pyrimidine-3-carbaldehyde oxime] |
| 51 nM | Cc1nc2c(c(CO)nn2C(c2ccc(C(C)(C)C)cc2)C2CC2)c(=O)[nH]1 (single isomer, unassigned) [Example 88, (R)- or (S)-1-((4-tert-Butylphenyl)(cyclopropyl)methyl)-3-(hydroxymethyl)-6-methyl-1H-pyrazolo[3,4-d]pyrimidin-4(5H)-one] |
| 1.9 nM | Cc1nc2c(c(CC#N)nn2C(C)c2ccc(C(F)(F)F)cc2)c(=O)[nH]1 (single isomer, unassigned) [Example 281] |
| 3.6 nM | COCc1nc2c(c(CO)nn2C(C)c2ccc(C(F)(F)F)cc2)c(=O)[nH]1 (single isomer, unassigned) [Example 293] |
| 15 nM | Cc1nc2c(c(CF)nn2C(c2ccc(C(F)(F)F)cc2)C(C)(C)C)c(=O)[nH]1 (single isomer, unassigned) [Example 234, (S)- or (R)-1-(2,2-Dimethyl-1-(4-(trifluoromethyl)phenyl)propyl)-3-(fluoromethyl)-6-methyl-1H-pyrazolo[3,4-d]pyrimidin-4(5H)-one] |
| 1.5 nM | Cc1nc2c(c(C(F)(F)CO)nn2C(C)c2ccc(C(F)(F)F)cc2)c(=O)[nH]1 (single isomer, unassigned) [Example 255] |
| 10 nM | Cc1nc2c(c(CO)nn2C(c2ccc(OC(F)(F)F)c(F)c2)C2CC2)c(=O)[nH]1 (single isomer, unassigned) [Example 92, (R)- or (S)-1-(Cyclopropyl(3-fluoro-4-(trifluoromethoxy)phenyl)methyl)-3-(hydroxymethyl)-6-methyl-1H-pyrazolo[3,4-d]pyrimidin-4(5H)-one] |
